Data set [1] in a line: Absorbance and molar absorptivity of sunscreen compounds. Type of data set: physicochemical. The note with it: for ελMax / λMax: 70% ethanol/30% H2O solution; for molar absorption compared to Avobenzone: 70% ethanol and 30% isopropyl myristate. Here is the method: Each exploratory sunscreen compound was dissolved in 70% ethanol/30% isopropyl myristate and/or 70% ethanol/30% water and the UV visible absorption spectrum measured with a Shimadza UV 2101-double beam spectrophotometer using the solvent as reference. A similar solution of Octocrylene was prepared and the UV-visible absorption spectrum measured. Each solution was then illuminated for two hours in the solar simulator. After illumination, the absorption spectrum was again measured each solution. […]

A short description of data set [2]: DPPH test method (antioxidant property, % reducing activity). The format is biochemical. As to conditions: 20 minutes, 517 nm. Here is the method:
A DPPH concentrate (2.5×) of 25 mg of 1,1-Diphenyl-2-Picyrl-Hydrazyl ACS# 1898-66-4 (Sigma #D-9132, lot 99H3601) dissolved in 250 mL ethanol (USP), is prepared fresh on the measurement date. A DPPH working solution is then prepared by diluting 100 mL of this concentrate to a final volume of 250 mL ([…]). A blank 13×100 mm borosilicate glass screw top tube of ethanol (USP) is used to zero the spectrometer (Milton Roy, Spectronic 20+) at 517 nm and a control tube of DPPH working solution is measured under identical conditions, and taken as 0% activity. Aliquots of the 0.25% & 0.5% (RT & 45° C.) test solution are added to tubes followed by the rapid addition of 4 mL DPPH working solution then rapidly capped and mixed. After 20 minutes, the absorbance of each sample is read at 517 nm.
The percent reducing activity (% RA) is calculated using the following equation:
% Reduction Activity=100 A(0)-A(20)/A(0)
Where A(0) is the absorbance value of the DPPH working solution at 517 nm zeroed against an ethanol blank and A(20) is the absorbance at 517 nm, 20 minutes after combining the antioxidant with the DPPH working solution.
The concentration of antioxidant (mg/ml) in the final assay mixture is calculated based on the dilution of respective aliquots of each compound in the final assay volume and % RA tabulated and plotted as percent activity at each concentration in the dilution series.
Background: Loss of DPPH colour is used to gauge radical scavenging.

A short description of data set [3]: Photostability, 2 hours illumination in Xe arc solar simulator, UV-visible absorption spectrum. Type of data set: physicochemical. As to conditions: for photostability compared to Octocrylene: 2 hours of illumination in the solar simulator. From the text: The solar simulator used for illumination of the samples in the experiments was constructed incorporating a 1 kw Xe arc lamp, optical bench and sample illumination chamber. The lamp output was filtered through a water filter with a course window to remove most of the infrared radiation and optical filters to remove wavelengths below 290 nm. The output of the illumination system was focused onto the face of a 1 cm quartz Cuvette that was thermally equilibrated with a constant temperature water bath at 25 ° C. A magnetic stir was mounted under the Cuvette so that the samples could be stirred while being illuminated. An electric shutter was controlled by a dark room timer to provide precise control of illumination times. The solar simulator was constructed to provide illumination that closely matches terrestrial sunlight. The solar simulator delivered roughly 250 J/cm^2 over a 2-hour period of illumination in a 290-490 nm range. This irradiance was determined using two nitrobenzaldehyde chemical actinometry. The irradiance is much higher than other solar simulator systems which typically illuminate a large area in order to illuminate many samples simultaneously rather than being focused down to a very small area. Each exploratory sunscreen compound was dissolved in 70% ethanol/30% isopropyl myristate and/or 70% ethanol/30% water and the UV visible absorption spectrum measured with a Shimadza UV 2101-double beam spectrophotometer using the solvent as reference. A similar solution of Octocrylene was prepared and the UV-visible absorption spectrum measured. Each solution was then illuminated for two hours in the solar simulator. After illumination, the absorption spectrum was again measured each solution.

Another data set can be described thus: physchem. Type of data set: physicochemical. The procedure:
Individual solutions of selected sunscreen compounds (2/1, 2/4, 2/5, 2/7 and 2/8) with Avobenzone were as follows. Each sunscreen compound was dissolved in 70% ethanol/30% H2O solution containing roughly an equal molar amount of Avobenzone. A similar solution containing Di-2-ethylhexyl-2,6-napthalene dicarboxylic acid (DENDA) and Avobenzone was also prepared. Each solution was then illuminated in the solar simulator as configured above for the photostability tests and aliquots of each solution were removed at 30-minute time intervals. These aliquots were injected into an HPLC and the loss of Avobenzone was followed with illumination time. The high performance liquid chromatograph (HPLC) used for all experiments reported therein incorporated a Spectra-Physics model P-200 pump with an Applied Biosystems model 785A UV-Visible detector with a Rheodyne manual injector incorporating a […] sample loop and a 150×4.6 mm reversed-phase C18 column (Alltech). All analyses were carried out under isocratic elution conditions using CH3OH/H2O mixtures for the mobile phase at a flow rate of […] per minute. It was necessary to employ HPLC separation of Avobenzone from each of the sunscreen compounds to quantify Avobenzone due to the absorption spectra overlap with some of these compounds.

The mark [4] stands for this setting: 0.028 mg/ml in final assay mixture.
[5] abbreviates: 0.056 mg/ml in final assay mixture.
The mark [6] stands for this setting: 0.139 mg/ml in final assay mixture.
[7] abbreviates: 0.278 mg/ml in final assay mixture.
Where [8] appears, read: after 2 hours of illumination in the solar simulator.
Where [9] appears, read: 2.500 mg/ml in final assay mixture.

These results are taken from US6602515B2, “Photo stable organic sunscreen compounds with antioxidant properties and compositions obtained therefrom” (EM Industries, priority 2001, dated 2003).

As a reminder, the half-life is the time in which the quantity being followed falls by half. A higher half-life goes with slow loss.

Structures are written as SMILES.

`CCCCC(CC)COC(=O)C(=Cc1cc(OC)c(O)c(OC)c1)C(=O)OCC(CC)CCCC` (stereo not shown) [2/8, di(2-ethyl-hexyl)-3,5-dimethoxy-4-hydroxy benzylidene malonate]: the ελMax in data set [1] was found to be 16000 M⁻¹ cm⁻¹. The λMax in data set [1] was found to be 340 nm. Further, the “% Reducing Activity” value in data set [2] (setting [4]) came to 8.5%; in data set [2] (setting [5]), 13.0%; in data set [2] (setting [6]), 23.2%; in data set [2] (setting [7]) it was 33.7%. Moreover, the “absorption after illumination relative to the initial value” in data set [3] (2 hour period of illumination, not precise) is “approximately 82%”. In addition, in the data set “physchem”, the “stabilization of Avobenzone, compared with DENDA” value was “appear to stabilize Avobenzone as effectively as DENDA”.
In data set [1], `COc1ccc(C(=O)CC(=O)c2ccc(C(C)(C)C)cc2)cc1` [Avobenzone, reference compound] registered a ελMax of 25000 M⁻¹ cm⁻¹ and a λMax of 360 nm. In the data set “physchem”, this compound gave a half-life of about 3 h.
For the compound `CCOC(=O)C(C)=Cc1cc(OC)c(O)c(OC)c1` [2/7, ethyl-alpha-methyl-3,5-dimethoxy-4-hydroxy cinnamate], the λMax in data set [1] was found to be 314 nm. The “% Reducing Activity” value in data set [2] (setting [4]) was found to be 46.1%; in data set [2] (setting [5]), 61.2%; in data set [2] (setting [6]), 77.3%; in data set [2] (setting [7]), 85.0%. This compound displayed a loss of absorbance in data set [3] (setting [8]) of 72%.
As for `CCOC(=O)C(=Cc1cc(OC)c(O)c(OC)c1)C(C)=O` [2/5, ethyl-alpha-acetyl-3,5-dimethoxy-4-hydroxy cinnamate], in data set [1], the “molar absorption compared to Avobenzone” value is “lower molar absorption than Avobenzone”, the ελMax turned out to be 19000 M⁻¹ cm⁻¹ and the λMax is listed as 348 nm. Moreover, the “% Reducing Activity” value in data set [2] (setting [4]) is listed as 20.7%. Besides, in data set [2] (setting [5]), the “% Reducing Activity” value turned out to be 31.0%. Moreover, the “% Reducing Activity” value in data set [2] (setting [6]) came out at 47.3%. Moreover, the “% Reducing Activity” value in data set [2] (setting [7]) was 59.9%. Moreover, in data set [3], the “stability compared to Avobenzone” value is recorded as “appear to be more stable than Avobenzone” and the “photostability compared to Octocrylene” value is “comparable photo stabilities to Octocrylene”. Further, the “photostability (retention of absorptivity), in words” value (shortened to “photostability … in words”) in data set [3] (setting [8]) was “retain most of their absorptivity”. In addition, the “stabilization of Avobenzone, compared with DENDA” value in “physchem” is given as “somewhat less effective than DENDA”.
Take `CCOC(=O)C(C#N)=Cc1cc(OC)c(OC)c(OC)c1` [2/2, ethyl-alpha-cyano-3,4,5-trimethoxy cinnamate, reference compound]: in data set [2] (setting [9]), the “% Reducing Activity” value was found to be 3%.
In data set [1], `CCOC(=O)C(=Cc1cc(OC)c(OC)c(OC)c1)C(=O)OCC` [2/1, diethyl-3,4,5-trimethoxy benzylidene malonate, reference compound] showed a ελMax of 20000 M⁻¹ cm⁻¹ and a λMax of 313 nm. Also, in data set [2] (setting [9]), the “% Reducing Activity” value is 0.0%. Also, the “photostability compared to Octocrylene” value in data set [3] was “comparable photo stabilities to Octocrylene”. In addition, the “photostability … in words” value in data set [3] (setting [8]) was “retain most of their absorptivity”. Besides, the “stabilization of Avobenzone, compared with DENDA” value in the data set “physchem” was “appear to stabilize Avobenzone as effectively as DENDA”.
`COc1cc(C=C(C(=O)OCCC(C)C)C(=O)OCCC(C)C)cc(OC)c1O` [2/10, di-iso-amyl-3,5-dimethoxy-4-hydroxy benzylidene malonate]: the “% Reducing Activity” value in data set [2] (setting [4]) is listed as 10.2%; in data set [2] (setting [5]) it was 14.6%; in data set [2] (setting [6]), 22.3%; in data set [2] (setting [7]), 30.1%.
As for `CCOC(=O)C(C#N)=Cc1cc(OC)c(O)c(OC)c1` [2/3, ethyl-alpha-cyano-3,5-dimethoxy-4-hydroxy cinnamate], the “% Reducing Activity” value in data set [2] (setting [4]) came out at 5.2%; in data set [2] (setting [5]), 8.4%; in data set [2] (setting [6]) it was 11.3%; in data set [2] (setting [7]), 15.5%; in data set [2] (setting [9]), 25.40%.
In the case of `CCCCC(CC)COC(=O)C(C#N)=C(c1ccccc1)c1ccccc1` (stereo not shown) [Octocrylene, reference compound], in data set [3] (setting [8]), the “photostability … in words” value was “no loss in absorptivity”.
As to `CCCCC(CC)COC(=O)c1ccc2cc(C(=O)OCC(CC)CCCC)ccc2c1` (stereo not shown) [DENDA, Di-2-ethylhexyl-2,6-napthalene dicarboxylic acid, reference compound], the “stabilization of Avobenzone, compared with DENDA” value in the data set “physchem” was “Initially the loss of Avobenzone was quite rapid but then seemed to become stable”.
On to `CCOC(=O)C(=Cc1cc(OC)c(O)c(OC)c1)C(=O)OCC` [2/4, diethyl-3,5-dimethoxy-4-hydroxy benzylidene malonate], for which the “molar absorption compared to Avobenzone” value in data set [1] is listed as “lower molar absorption than Avobenzone”. In data set [1], this compound returned a ελMax of 12000 M⁻¹ cm⁻¹. The compound also displayed a λMax in data set [1] of 338 nm. Further, the “% Reducing Activity” value in data set [2] (setting [4]) is 5.2%; in data set [2] (setting [5]) it was 12.8%; in data set [2] (setting [6]), 29.51%; in data set [2] (setting [7]), 33.4%; in data set [2] (setting [9]), 71.70%. For the same compound, the “stability compared to Avobenzone” value in data set [3] is reported as “appear to be more stable than Avobenzone”. For the same compound, in data set [3], the “photostability compared to Octocrylene” value is “comparable photo stabilities to Octocrylene”. Moreover, the “photostability … in words” value in data set [3] (setting [8]) is on record as “retain most of their absorptivity”. In addition, the “stabilization of Avobenzone, compared with DENDA” value in the data set “physchem” is reported as “appear to stabilize Avobenzone as effectively as DENDA”.
